“And” between values parts separate entries of the source, which are not always exact repeats. Equal values may be shown once. “Also recorded” adds a separate entry of the source.
Experiments:
[1] = test system: healthy volunteers; details: human, in vivo, po
[2] = test system: Male Long Evans rats; assay: Progressive ratio responding for food (lever press, break point, session duration); type: in vivo
Procedure: Animals and housing: Male Long Evans rats were used (source: Charles River Laboratories, St. Constant, Quebec). All study animals were singly housed in a vivarium under a 12 h light:dark cycle (lights on: 06:00 h-18:00 h). All behavioural testing was during the light phase. Rats were placed on a restricted diet regimen, where they were fed once a day with approximately 20 g of standard laboratory chow at the completion of testing procedures (16:00 h-18:00 h). For these animals, water was freely available except during testing. All animal use procedures were performed in accordance with the principles of the Canadian Council on Animal Care (CCAC).
Methods: A total of 72 rats were used in the psilocybin experiment. The basic test design involved training animals to lever press for a food reward (45 mg Bioserv pellets) under a progressive ratio (PR) schedule in which the number of responses required to achieve a pellet increases for successive reinforcers. The progressive ratio was derived from the equation ratio=[5×e^(0.2×reinforcer #)−5], and was as follows: […], etc.
Subjects were administered psilocybin (0.025, 0.05, 0.1 mg/kg) or vehicle control according to Latin square design, in which each animal received each treatment over repeated test sessions with 2-3 day intervals between each testing cycle. Subjects were also subgrouped into low responders (N=24) based on having the lowest average break point measure recorded over 7 days prior to testing and a separate analysis was conducted on this cohort.
Statistical analysis: Data are presented as means±SEM. Data from the progressive ratio task was analysed by one way (treatment) repeated measures ANOVA (Statistica Version 11, Statsoft Inc. [2012]). In the event of a significant main effect, post-hoc comparisons were carried out with Dunnett's test for comparison of drug treatment to vehicle control. Both study cohorts of “All” and “Low responders” were analysed separately. In all cases the accepted level of significance was P<0.05. Effect sizes for group mean differences were also calculated using partial eta squared (Statistica Version 11, Statsoft Inc. [2012]). In addition a correlational analysis (parametric: Pearson R; non-parametric: Spearman R) was conducted at each dose level to look at the relationship between baseline (vehicle) response and magnitude of change in break point and lever press following each psilocybin dose.

[3] = all 72 rats, psilocybin 0.025, 0.05, 0.1 mg/kg SC vs vehicle, ANOVA main effect
[4] = low responder subgroup N=24, psilocybin 0.05-0.1 mg/kg relative to vehicle control

CN(C)CCc1c[nH]c2cccc(OP(=O)(O)O)c12 [Psilocybin, 4-phosphoryloxy-N,N-dimethyltryptamine]
RTI Median Five-Choice Reaction Time 2 Hr [1]: 381 and 347 and 377 and 386.5 and 446 and 343 | RTI Median Five-Choice Reaction Time 4 Hr [1]: 330 and 346 and 377 and 413 and 431 and 330.5 | number of lever press [2, 3]: no main effect of treatment | session duration [2, 3]: no main effect of treatment | break point ([2]; all 72 rats, psilocybin 0.025, 0.05, 0.1 mg/kg SC vs vehicle, post-hoc comparison): no treatment group was significantly different to vehicle | relationship between baseline responding and % change in break point or lever press ([2]; low responder subgroup N=24, 0.025 mg/kg SC): no such correlation; also recorded: no significant correlation | relationship between baseline responding and % change in break point or lever press ([2]; low responder subgroup N=24, 0.05 mg/kg SC, Pearson R and Spearman R): inverse correlation; also recorded: significant correlation | relationship between baseline responding and % change in break point or lever press ([2]; low responder subgroup N=24, 0.1 mg/kg SC, Pearson R and Spearman R): inverse correlation; also recorded: significant correlation | session duration ([2]; low responder subgroup N=24, 0.1 mg/kg, mean±SEM): 18.7 ± 2.5 min | session duration (treatment effect) ([2]; low responder subgroup N=24, psilocybin 0.025-0.1 mg/kg vs vehicle, ANOVA): no treatment effect | break point [2, 4]: increases | lever press [2, 4]: increases

— patent publication US20250176904A1, “PRE-DOSING METHOD OF ASSESSING DRUG BENEFITS IN PATIENTS” (priority 2022, published 2025)
